From the NIST ThermoML archive (doi:10.1021/acs.jced.6b00210)
Numbers after ± are expanded uncertainties.

Columns and labels:
[1] = xn = mol fraction of the nth substance listed; settings: 100 kPa, Liquid, x2 = 0; for viscosity: Concentric cylinders viscometry; for mass density: Vibrating tube method
[2] = 100 kPa, Liquid; for viscosity: Concentric cylinders viscometry; for mass density: Vibrating tube method

CC(C)O [propan-2-ol] + Nc1ccccc1
[1]
Settings	mass density [kg/m3]	viscosity [mPa·s]
293.15 K	785.4 ± 0.2	2.42 ± 0.29
298.15 K	781.1 ± 0.2	2.08 ± 0.25
303.15 K	776.8 ± 0.2	1.8 ± 0.22
308.15 K	772.4 ± 0.2	1.56 ± 0.19
313.15 K	768 ± 0.2	1.36 ± 0.16
318.15 K	763.4 ± 0.2	1.19 ± 0.14
323.15 K	758.8 ± 0.2	1.05 ± 0.13

CCCC(C)O (stereo not drawn) [pentan-2-ol]
[2]
Settings	mass density [kg/m3]	viscosity [mPa·s]
293.15 K	809.3 ± 0.2	3.97 ± 0.48
298.15 K	805.3 ± 0.2	3.44 ± 0.41
303.15 K	801.2 ± 0.2	2.94 ± 0.35
308.15 K	797 ± 0.2	2.48 ± 0.3
313.15 K	792.7 ± 0.2	2.04 ± 0.25
318.15 K	788.4 ± 0.2	1.65 ± 0.2
323.15 K	784 ± 0.2	1.29 ± 0.16

CC(C)O [propan-2-ol]
[2]
Settings	mass density [kg/m3]	viscosity [mPa·s]
293.15 K	785.4 ± 0.2	2.42 ± 0.29
298.15 K	781.1 ± 0.2	2.08 ± 0.25
303.15 K	776.8 ± 0.2	1.8 ± 0.22
308.15 K	772.4 ± 0.2	1.56 ± 0.19
313.15 K	768 ± 0.2	1.36 ± 0.16
318.15 K	763.4 ± 0.2	1.19 ± 0.14
323.15 K	758.8 ± 0.2	1.05 ± 0.13

Nc1ccccc1 [aniline]
[2]
Settings	mass density [kg/m3]	viscosity [mPa·s]
293.15 K	1021.7 ± 0.3	4.37 ± 0.53
298.15 K	1017.4 ± 0.3	3.8 ± 0.46
303.15 K	1013.2 ± 0.3	3.13 ± 0.38
308.15 K	1009 ± 0.3	2.75 ± 0.33
313.15 K	1004.7 ± 0.3	2.43 ± 0.29
318.15 K	1000.4 ± 0.3	2.14 ± 0.26
323.15 K	995.5 ± 0.3	1.96 ± 0.24

CCCC(C)O (stereo not drawn) [pentan-2-ol] + Nc1ccccc1
[1]
Settings	mass density [kg/m3]	viscosity [mPa·s]
293.15 K	809.3 ± 0.2	3.97 ± 0.48
298.15 K	805.3 ± 0.2	3.44 ± 0.41
303.15 K	801.2 ± 0.2	2.94 ± 0.35
308.15 K	797 ± 0.2	2.48 ± 0.3
313.15 K	792.7 ± 0.2	2.04 ± 0.25
318.15 K	788.4 ± 0.2	1.65 ± 0.2
323.15 K	784 ± 0.2	1.29 ± 0.16

CCC(C)O (stereo not drawn) [butan-2-ol]
[2]
Settings	mass density [kg/m3]	viscosity [mPa·s]
293.15 K	806.7 ± 0.2	3.67 ± 0.44
298.15 K	802.7 ± 0.2	3.04 ± 0.37
303.15 K	798.4 ± 0.2	2.54 ± 0.31
308.15 K	794.1 ± 0.2	2.13 ± 0.26
313.15 K	789.8 ± 0.2	1.8 ± 0.22
318.15 K	785.2 ± 0.2	1.54 ± 0.19
323.15 K	780.6 ± 0.2	1.33 ± 0.16

CCC(C)O (stereo not drawn) [butan-2-ol] + Nc1ccccc1
[1]
Settings	mass density [kg/m3]	viscosity [mPa·s]
293.15 K	806.7 ± 0.2	3.67 ± 0.44
298.15 K	802.7 ± 0.2	3.04 ± 0.37
303.15 K	798.4 ± 0.2	2.54 ± 0.31
308.15 K	794.1 ± 0.2	2.13 ± 0.26
313.15 K	789.8 ± 0.2	1.8 ± 0.22
318.15 K	785.2 ± 0.2	1.54 ± 0.19
323.15 K	780.6 ± 0.2	1.33 ± 0.16
